Test results as given in patent publication US8802678B2, “Carbonylated (aza) cyclohexanes as dopamine D3 receptor ligands” (Bioprojet, priority 2006, dated 2014).

Row | SMILES | melting point [°C]
1 | N#CCC(=O)N[C@H]1CC[C@H](CCN2CC=C(c3cccc(C(F)(F)F)c3)CC2)CC1 | 149
2 | N#CCC(=O)N[C@H]1CC[C@H](CCN2CCN(c3cccc(Cl)c3F)CC2)CC1 [Example 185, N-(4-{2-[4-(3-Chloro-2-fluorophenyl)piperazin-1-yl]ethyl}cyclohexyl)-2-cyanoacetamide] | 183
3 | N#CCCCC(=O)N[C@H]1CC[C@H](CCN2CCN(c3ccc(Cl)c(Cl)c3Cl)CC2)CC1 [Example 765, 4-Cyano-N-(4-{2-[4-(2,3,4-trichlorophenyl)piperazin-1-yl]ethyl}cyclohexyl)butanamide] | 176
4 | COCC(=O)N[C@H]1CC[C@H](CCN2CCN(c3cccc(C(F)(F)F)c3C#N)CC2)CC1 [Example 119, N-(4-{2-[4-(2-Cyano-3-trifluoromethylphenyl)piperazin-1-yl]ethyl}cyclohexyl)-2-methoxyacetamide] | 172
5 | CCOCC(=O)N1CCC(CCN2CCN(c3cccc(C(F)(F)F)c3)CC2)CC1.Cl | 145
6 | O=C(N[C@H]1CC[C@H](CCN2CCN(c3cccc(C(F)(F)F)c3)CC2)CC1)C1CC=CC1 [Example 52, Cyclopent-3-enecarboxylic acid (4-{2-[4-(3-trifluoromethylphenyl)-piperazin-1-yl]ethyl}cyclohexyl)-amide] | 183
7 | CCc1ccccc1C1=CCN(CC[C@H]2CC[C@H](NC(=O)CCCC#N)CC2)CC1 | 120
8 | CC(=O)CN1CCC(CCN2CCN(c3cc(F)c(F)c(F)c3F)CC2)CC1.Cl.Cl | 235
9 | COC(C)(C)C(=O)N[C@H]1CC[C@H](CCN2CCN(c3cccc(C(F)(F)F)c3)CC2)CC1 [Example 77, 2-Methoxy-2-methyl-N-(4-{2-[4-(3-trifluoromethylphenyl)-piperazin-1-yl]ethyl}cyclohexyl)-propanamide] | 105
10 | CCCOCC(=O)N[C@H]1CC[C@H](CCN2CCN(c3cccc(C(F)(F)F)c3F)CC2)CC1 [Example 516, N-(4-{2-[4-(2-Fluoro-3-trifluoromethylphenyl)piperazin-1-yl]ethyl}cyclohexyl)-2-propoxyacetamide] | 102
11 | O=C(N[C@H]1CC[C@H](CCN2CCN(c3ccccc3F)CC2)CC1)C1=CCCC1 [Example 68, Cyclopent-1-enecarboxylic acid (4-{2-[4-(2-fluorophenyl)-piperazin-1-yl]ethyl}-cyclohexyl)amide] | 210 to 211
12 | Cc1ccc(N2CCN(CC[C@H]3CC[C@H](NC(=O)CCCC#N)CC3)CC2)cc1F [Example 538, 4-Cyano-N-(4-{2-[4-(3-fluoro-4-methylphenyl)piperazin-1-yl]ethyl}cyclohexyl)butanamide] | 180
13 | CC(=O)CN1CCC(CCN2CCN(c3ccc(F)c(Cl)c3F)CC2)CC1 [Example 623, 1-(4-{2-[4-(3-Chloro-2,4-difluorophenyl)piperazin-1-yl]ethyl}piperidin-1-yl)propan-2-one] | 82
14 | CCC(O)c1cccc(N2CCN(CC[C@H]3CC[C@H](NC(=O)CC#N)CC3)CC2)c1 (some centres unmarked) [Example 566, 2-cyano-N-[4-(2-{4-[3-(1-hydroxypropyl)phenyl]piperazin-1-yl}ethyl)cyclohexyl]acetamide] | 157
15 | CC(=O)CN1CCC(CCN2CCc3cc(C#N)ccc3C2)CC1.Cl.Cl | 249
16 | N#CCCC(=O)N[C@H]1CC[C@H](CCN2CCN(c3ccc(F)cc3F)CC2)CC1 [Example 403, 3-Cyano-N-(4-{2-[4-(2,4-difluorophenyl)piperazin-1-yl]ethyl}cyclohexyl)propanamide] | 165

Row | SMILES | melting point [°C]
17 | N#CCCCC(=O)N[C@H]1CC[C@H](CCN2CCN(c3cc(Cl)cc(C(F)(F)F)c3)CC2)CC1 [Example 529, N-(4-{2-[4-(3-Chloro-5-trifluoromethylphenyl)piperazin-1-yl]ethyl}cyclohexyl)-4-cyanobutanamide] | 152
18 | CC(=O)CN1CCC(CCN2CCN(c3ccc(F)c(F)c3)CC2)CC1.Cl.Cl | 249
19 | COCCCC(=O)N[C@H]1CC[C@H](CCN2CCN(c3cccc(C(F)(F)F)c3F)CC2)CC1 [Example 470, N-(4-{2-[4-(2-Fluoro-3-trifluoromethylphenyl)piperazin-1-yl]ethyl}cyclohexyl)-4-methoxybutanamide] | 175
20 | COc1c(Cl)cccc1N1CCN(CC[C@H]2CC[C@H](NC(=O)CC#N)CC2)CC1 [Example 215, N-(4-{2-[4-(3-Chloro-2-methoxyphenyl)piperazin-1-yl]ethyl}cyclohexyl)-2-cyanoacetamide] | 122
21 | CCOc1cccc(N2CCN(CC[C@H]3CC[C@H](NC(=O)CCCC#N)CC3)CC2)c1 [Example 535, 4-Cyano-N-(4-{2-[4-(3-ethoxyphenyl)piperazin-1-yl]ethyl}cyclohexyl)butanamide] | 121
22 | O=C(N[C@H]1CC[C@H](CCN2CCN(c3ccc(F)cc3F)CC2)CC1)C1CC=CC1 [Example 494, Cyclopent-3-enecarboxylic acid (4-{2-[4-(2,4-difluorophenyl)-piperazin-1-yl]ethyl}cyclohexyl) amide] | 199
23 | COCCCC(=O)N[C@H]1CC[C@H](CCN2CCN(c3ccccc3)CC2)CC1 [Example 99, 4-Methoxy-N-{4-[2-(4-phenylpiperazin-1-yl)ethyl]cyclohexyl}butanamide] | 172
24 | Cl.O=C(CC(F)(F)F)N1CCC(CCN2CCN(c3cccc4c3CCC4)CC2)CC1 | 206
25 | N#CCC(=O)N[C@H]1CC[C@H](CCN2CCN(c3cc(Cl)cc(C(F)(F)F)c3)CC2)CC1 [Example 528, N-(4-{2-[4-(3-Chloro-5-trifluoromethylphenyl)piperazin-1-yl]ethyl}cyclohexyl)-2-cyanoacetamide] | 172
26 | CC(=O)CN1CCC(CCN2CCN(c3ccc(Cl)cc3Cl)CC2)CC1.Cl.Cl | 283
27 | COc1ccccc1N1CCN(CC[C@H]2CC[C@H](NC(=O)C3CC=CC3)CC2)CC1 [Example 372, Cyclopent-3-enecarboxylic acid (4-{2-[4-(2-methoxyphenyl)piperazin-1-yl]ethyl}cyclohexyl) amide] | 202
28 | CC(=O)CN1CCC(CCN2CCN(c3cc(C(F)(F)F)cc(C(F)(F)F)c3)CC2)CC1.Cl.Cl | 260
29 | CCc1cccc(N2CCN(CC[C@H]3CC[C@H](NC(=O)C4=CCCCO4)CC3)CC2)c1 [Example 561, 5,6-Dihydro-4H-pyran-2-carboxylic acid (4-{2-[4-(3-ethylphenyl)piperazin-1-yl]ethyl}cyclohexyl) amide] | 135
30 | COCc1cccc(N2CCN(CC[C@H]3CC[C@H](NC(=O)CC#N)CC3)CC2)c1 [Example 270, 2-Cyano-N-(4-{2-[4-(3-methoxymethylphenyl)piperazin-1-yl]ethyl}cyclohexyl)acetamide] | 117
31 | COCC(=O)N[C@H]1CC[C@H](CCN2CCN(c3ccccc3F)CC2)CC1 [Example 50, N-(4-{2-[4-(2-Fluorophenyl)-piperazin-1-yl]ethyl}cyclohexyl)-2-methoxyacetamide] | 143 to 144
32 | Cl.Cl.NC(=O)CN1CCC(CCN2CCN(c3cccc(C(F)(F)F)c3)CC2)CC1 | 120
